# Reference: patent US10240216B2 (priority 2013, dated 2019)
# Assays:
# Magnaporthe oryzae = format: cell-based; conditions: at 25 μg/mL
# [1] = system: a number of bacteria and fungi; conditions: concentration of 1 mg/ml; cited from earlier work
# HeLaS3 cells = conditions: 50 μg/mL, 72 h
# Paealomyces variotii = format: cell-based
# human neutrophils = conditions: cited from earlier work
# Mucor miehei = format: cell-based
# Bacillus brevis = format: cell-based
# a number of bacteria = conditions: concentration of 64 µg/mL; cited from earlier work
compound,measurement,setting,value
Cc1ccc2c(c1/C=C/C=C/C(=O)O)C(C)CC(C)C2O (stereo not shown) [arohynapene A],inhibition of the spore germination of Magnaporthe oryzae,Magnaporthe oryzae,100%
same,antimicrobial activity in vitro against a number of bacteria and fungi,[1],no antimicrobial activity
CC1Cc2ccc(CO)c(/C=C/C=C/C(=O)O)c2C(C)C1 (stereo not shown) [arohynapene B],inhibition of the spore germination of Magnaporthe oryzae,Magnaporthe oryzae,100%
same,antimicrobial activity in vitro against a number of bacteria and fungi,[1],no antimicrobial activity
Cc1ccc2c(c1/C=C/C=C/C(=O)O)[C@H](C)C[C@H](C)C2 [tanzawaic acid A],cytotoxic effects against HeLaS3 cells,HeLaS3 cells,cytotoxic effects
same,activity in agar diffusion assay against Paealomyces variotii,Paealomyces variotii,slight activity
same,inhibition of superoxide anion production in human neutrophils,human neutrophils,inhibit superoxide anion production
same,activity in agar diffusion assay against Mucor miehei,Mucor miehei,slight activity
same,activity in agar diffusion assay against Bacillus brevis,Bacillus brevis,slight activity
"C[C@@H]1C[C@@](C)(O)Cc2ccc(CO)c(/C=C/C=C/C(=O)O)c21 [tanzawaic acid G, Tanzawaic acids G and H]",activity against a number of bacteria,a number of bacteria,neither tanzawaic acids G nor H were found to be active
"Tanzawaic acids A, B, C and D [tanzawaic acid B]",inhibition of superoxide anion production in human neutrophils,human neutrophils,inhibit superoxide anion production
arohynapene D,antimicrobial activity in vitro against a number of bacteria and fungi,[1],no antimicrobial activity
"hynapenes A, B and C [hynapene A]",antimicrobial activity in vitro against a number of bacteria and fungi,[1],show antimicrobial activity
